Measured values published in patent US8193351B2, “HSP90 inhibitor” (Chugai Seiyaku Kabushiki Kaisha, priority 2006, dated 2012).

How the values were obtained:
[1] = biological target: T1, Human HSP90 alpha (Homo sapiens, UniProt P07900); assay: Measurement of HSP90 enzyme inhibitory activity (ATPase, malachite green); format: biochemical; conditions: purified human HSP90 alpha, 1 mM ATP added, 37° C., two hours; read-out: Enzyme inhibitory activity (IC50, μM) Human HSP 90α
T1 construct: made in house; host or cells: E. coli BL21 codon plus (Stratagene)
Protocol: HSP90 enzyme inhibitory activity of the compounds of the present invention represented by formula (1) was measured by the following method. Among the 6-phenyl-N-phenyl-(1,3,5)triazin/(1,3)pyrimidin-2,4-diamine derivatives which are known LPAAT-β inhibitors, the following two compounds were used as comparative compounds, and their HSP90 enzyme inhibitory activities were measured similarly by the following method.
Introduction of pETHuHSP90a into E. coli (BL21 codon plus; Stratagene) was followed by O/N incubation in the presence of 0.1 mM IPTG, and the collected E. coli cells were disrupted by ultrasonication in a Lysis buffer (50 mM Tris-HCl (pH8.0), 10 mM MgCl2, 0.1% Triton X-100, Protease inhibitor cocktail tablets (Roche Diagnostics)). The cell lysate solution was centrifuged (10,000 rpm×30 minutes), and the supernatant obtained after centrifugation was used as a crude extract. The crude extract was fractionated using HisPrep FF column and HiTrap Q column (Amersham) to prepare a purified enzyme solution.
An enzyme solution for assays was prepared by dilution of the purified enzyme solution using an assay buffer (50 mM Tris HCl pH7.6, 20 mM KCl, 5 mM MgCl2).
10 μL each of various concentrations of the test substances (10% DMSO solution) was added to each well, and for the positive control wells, 10 μL of 10% DMSO was added. 10 μL of 10% DMSO was also added to the negative control well.
10 μL of 1 mM ATP was added to all of the wells, and the reaction was carried out at 37° C. for two hours.

[2] = test system: HCT116 cells; assay: Measurement of cell growth inhibition (Cell Counting Kit-8, four days); format: cell-based; conditions: Homo sapiens, HCT-116, 96 h; HCT116 colon cancer cell line, four days culture; read-out: Cell growth inhibitory activity (IC50, μM) HCT116
Protocol: Cell growth inhibitory activities of the compounds of the present invention represented by formula (1) were measured by the following method.
Cells were maintained under conditions recommended by the provider of each cell line. Cells suspended in a medium were added to solutions containing various concentrations of the test substance, and the cells were cultured at 37° C. in a 5% CO2 incubator. Four days later, Cell Counting Kit-8 was added, and absorbance measurements were taken following the protocol included in the kit.

IC50 [1] [µM] | IC50 [2] [µM] | Structure (SMILES)
33.8 |  | CSc1nc(N)nc(-c2ccccc2)n1 [4-methylsulfanyl-6-phenyl-[1,3,5]triazin-2-ylamine, reference compound]
1.2 | 8.5 | Nc1nc(SCc2ccccc2)nc(-c2cc(OCc3ccccc3)c(Cl)cc2Cl)n1 [Example 4, 4-(5-benzyloxy-2,4-dichlorophenyl)-6-benzylsulfanyl[1,3,5]triazin-2-ylamine]
2 | 0.35 | COc1cc(C(=O)N2CCN(C)CC2)ccc1Sc1nc(N)nc(-c2cc(OCC#N)c(Cl)cc2Cl)n1 [Example 15, (5-{4-amino-6-[2-methoxy-4-(4-methyl-piperazin-1-carbonyl)-phenylsulfanyl]-[1,3,5]triazin-2-yl}-2,4-dichlorophenoxy)-acetonitrile]
2.1 | 1 | CSc1nc(N)nc(-c2cc(-c3ncccn3)c(Cl)cc2Cl)n1 [Example 24, 4-(2,4-dichloro-5-pyrimidin-2-yl-phenyl)-6-methylsulfanyl-[1,3,5]triazin-2-ylamine]
2.6 | 0.66 | CC(=O)NCCSc1nc(N)nc(-c2cc(-c3ncccn3)c(Cl)cc2Cl)n1 [Example 25, N-{2-[4-amino-6-(2,4-dichloro-5-pyrimidin-2-yl-phenyl)-[1,3,5]triazin-2-ylsulfanyl]-ethyl}-acetamide]
2.8 | 1.3 | NC(=O)c1cc(-c2nc(N)nc(SCc3ccccc3)n2)c(Cl)cc1Cl [Example 26, 5-(4-amino-6-benzylsulfanyl-[1,3,5]triazin-2-yl)-2,4-dichlorobenzamide]
1.2 | 1.2 | Nc1nc(SCc2ccccc2)nc(-c2cc(C(=O)NC(CO)CO)c(Cl)cc2Cl)n1 [Example 28, 5-(4-amino-6-benzylsulfanyl-[1,3,5]triazin-2-yl)-2,4-dichloro-N-(2-hydroxy-1-hydroxymethylethyl)-benzamide]
1.4 | 6.6 | COC(=O)c1cc(-c2nc(N)nc(SCC(O)CO)n2)c(C)cc1C (centres unmarked) [Example 37, 5-[4-amino-6-(2,3-dihydroxypropylsulfanyl)-[1,3,5]triazin-2-yl]-2,4-dimethylbenzoic acid methyl ester]
1.8 | 8.5 | COc1ccc(OC)c(Sc2cc(-c3ccc(Cl)cc3Cl)nc(N)n2)c1 [Example 39, 4-(2,4-dichlorophenyl)-6-(2,5-dimethoxyphenylsulfanyl)-pyrimidin-2-ylamine]
2.2 | 14.5 | COc1ccc(OC)c(Sc2cc(-c3ccc(OCCCO)cc3C)nc(N)n2)c1 [Example 44, 3-{4-[2-amino-6-(2,5-dimethoxyphenylsulfanyl)-pyrimidin-4-yl]-3-methylphenoxy}-propan-1-ol]
1.4 | 4.1 | COc1ccc(OC)c(Sc2cc(-c3ccc(OCC#N)cc3C)nc(N)n2)c1 [Example 45, {4-[2-amino-6-(2,5-dimethoxyphenylsulfanyl)-pyrimidin-4-yl]-3-methylphenoxy}-acetonitrile]
1.5 | 8.1 | COc1ccc(OC)c(Sc2cc(-c3ccc(OCC(N)=O)cc3C)nc(N)n2)c1 [Example 46, 2-{4-[2-amino-6-(2,5-dimethoxyphenylsulfanyl)-pyrimidin-4-yl]-3-methylphenoxy}-acetamide]
2.5 | 42.9 | COc1ccc(OC)c(Sc2cc(-c3cc(OCc4ccccc4)c(Cl)cc3Cl)nc(N)n2)c1 [Example 48, 4-(5-benzyloxy-2,4-dichlorophenyl)-6-(2,5-dimethoxyphenylsulfanyl)-pyrimidin-2-ylamine]
1.7 | 1.4 | COc1ccc(OC)c(Sc2cc(-c3cc(OCC#N)c(Cl)cc3Cl)nc(N)n2)c1 [Example 52, {5-[2-amino-6-(2,5-dimethoxyphenylsulfanyl)-pyrimidin-4-yl]-2,4-dichlorophenyoxy}-acetonitrile]
1.5 | 1.1 | N#CCOc1cc(-c2cc(Sc3nc4ccccc4[nH]3)nc(N)n2)c(Cl)cc1Cl [Example 54, {5-[2-amino-6-(1H-benzimidazol-2-ylsulfanyl)-pyrimidin-4-yl]-2,4-dichlorophenoxy}-acetonitrile]
1.7 | 5.3 | CCOC(=O)c1cnc(Sc2cc(-c3cc(OCC#N)c(Cl)cc3Cl)nc(N)n2)[nH]1 [Example 55, 2-[2-amino-6-(2,4-dichloro-5-cyanomethoxyphenyl)-pyrimidin-4-ylsulfanyl]-3H-imidazol-4-carboxylic acid ethyl ester]
1 | 0.12 | CC(=O)NCCSc1nc(N)nc(-c2cc(OCC#N)c(Cl)cc2Cl)n1 [Example 59, N-{2-[4-amino-6-(2,4-dichloro-5-cyanomethoxy-phenyl)-[1,3,5]triazin-2-ylsulfanyl]-ethyl}-acetamide]
2 | 0.74 | N#CCOc1cc(-c2nc(N)nc(SCCC(=O)N3CCOCC3)n2)c(Cl)cc1Cl [Example 63, {5-[4-amino-6-(3-morpholin-4-yl-3-oxo-propylsulfanyl)-[1,3,5]triazin-2-yl]-2,4-dichlorophenoxy}-acetonitrile]
1.4 | 6.1 | COc1ccc(Oc2nc(N)nc(-c3c(Cl)cc4c5c(cccc35)COC4)n2)cc1OC [Example 82, 4-(5-chloro-1H,3H-benzo[de]isochromen-6-yl)-6-(3,4-dimethoxyphenoxy)-[1,3,5]triazin-2-ylamine]
1.1 | 9.2 | Nc1nc(SC2CCCCC2)nc(-c2c(Cl)cc3c4c(cccc24)COC3)n1 [Example 92, 4-(5-chloro-1H,3H-benzo[de]isochromen-6-yl)-6-cyclohexylsulfanyl-[1,3,5]triazin-2-ylamine]
1.1 | 0.2 | COC(=O)CSc1nc(N)nc(-c2c(Cl)cc3c4c(cccc24)COC3)n1 [Example 111, [4-amino-6-(5-chloro-1H,3H-benzo[de]isochromen-6-yl)-[1,3,5]triazin-2-ylsulfanyl]-acetic acid methyl ester]
1 | 0.28 | CC(=O)Nc1ccccc1CSc1nc(N)nc(-c2c(Cl)cc3c4c(cccc24)COC3)n1 [Example 143, N-{2-[4-Amino-6-(5-chloro-1H,3H-benzo[de]isochromen-6-yl)-[1,3,5]triazin-2-ylsulfanylmethyl]-phenyl}-acetamide]
1.9 | 0.24 | COc1ccc(OC)c(Sc2nc(N)nc(-c3c(Cl)cc4c5c(cccc35)COC4)n2)c1 [Example 145, 4-(5-Chloro-1H,3H-benzo[de]isochromen-6-yl)-6-(2,5-dimethoxyphenylsulfanyl)-[1,3,5]triazin-2-ylamine]
2.8 | 0.11 | CC(=O)NCCCSc1nc(N)nc(-c2c(Cl)cc3c4c(cccc24)COC3)n1 [Example 149, N-{3-[4-amino-6-(5-chloro-1H,3H-benzo[de]isochromen-6-yl)-[1,3,5]triazin-2-ylsulfanyl]-propyl}-acetamide]
1.3 | 1.1 | NC(=O)CSc1cc(-c2c(Cl)cc3c4c(cccc24)COC3)nc(N)n1 [Example 314, 2-[2-amino-6-(5-chloro-1H,3H-benzo[de]isochromen-6-yl)-pyrimidin-4-ylsulfanyl]-acetamide]
1.9 | 2.1 | N#CCNC(=O)CSc1cc(-c2c(Cl)cc3c4c(cccc24)COC3)nc(N)n1 [Example 315, 2-[2-amino-6-(5-chloro-1H,3H-benzo[de]isochromen-6-yl)-pyrimidin-4-ylsulfanyl]-N-cyanomethyl-acetamide]
2.1 | 0.45 | NC(=O)CCSc1cc(-c2c(Cl)cc3c4c(cccc24)COC3)nc(N)n1 [Example 316, 3-[2-amino-6-(5-chloro-1H,3H-benzo[de]isochromen-6-yl)-pyrimidin-4-ylsulfanyl]-propionamide]
1.3 | 0.41 | Nc1nc(SCCC(=O)NCCO)cc(-c2c(Cl)cc3c4c(cccc24)COC3)n1 [Example 317, 3-[2-amino-6-(5-chloro-1H,3H-benzo[de]isochromen-6-yl)-pyrimidin-4-ylsulfanyl]-N-(2-hydroxy-ethyl)-propionamide]
1.4 | 0.22 | CNC(=O)CCSc1cc(-c2c(Cl)cc3c4c(cccc24)COC3)nc(N)n1 [Example 318, 3-[2-amino-6-(5-chloro-1H,3H-benzo[de]isochromen-6-yl)-pyrimidin-4-ylsulfanyl]-N-methyl-propionamide]
2.1 | 0.62 | COCCNC(=O)CCSc1cc(-c2c(Cl)cc3c4c(cccc24)COC3)nc(N)n1 [Example 319, 3-[2-amino-6-(5-chloro-1H,3H-benzo[de]isochromen-6-yl)-pyrimidin-4-ylsulfanyl]-N-(2-methoxy-ethyl)-propionamide]
